Laboratory results from US10538532B2, “Hepatitis B antiviral agents” (ENANTA PHARMACEUTICALS, INC., priority 2016, dated 2020).
Like-named read-outs stand apart in the source and are kept apart here.

Test system: HBV
Experiment: HepAD38 antiviral assay: reduction of viral product accumulation (virion DNA by qPCR, HBsAg or HBeAg by ELISA)
Type: cell-based, hepatitis B virus
Details: HepAD38 cells, five days after compound addition, concentration reducing viral product accumulation by 50% relative to no drug controls, read-out: HepAD38 EC50
Procedure, shortened: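 EC50 values represent 50% reduction of viral product accumulation in lysates or supernatants relative to untreated controls, with virion DNA read by qPCR and HBsAg/HBeAg by ELISA. Measurements followed 5 days of treatment, or 8 days with compound renewed on d2 and d5. Cells were tetracycline-depleted HepAD38 at 35,000/well, dosed with a 1:200 dilution of DMSO stocks.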

[1] = Hepatitis B virus, HePAD38, 120 h

Compound	EC50 [1] [nM]	EC50 [nM]
CC(C)(C)[Si](C)(C)O[C@H]1C2CCC1C[C@@H](S(=O)(=O)c1cc(C(=O)Nc3cc(F)c(F)c(F)c3)ccc1Cl)C2 [Example 195]	> 400	
C/[N+]([O-])=C\[C@]1(O)CC2CC[C@@H](C1)[C@H]2S(=O)(=O)c1cc(C(=O)Nc2cc(F)c(F)c(F)c2)ccc1Cl [Example 196]	< 100	
CCOC(OCC)[C@]1(O)CC2CC[C@@H](C1)[C@H]2S(=O)(=O)c1cc(C(=O)Nc2cc(F)c(F)c(F)c2)ccc1Cl [Example 197]	100 to 400	
O=C(Nc1cccnc1)N[C@@H]1C2CC[C@H]1C[C@H](S(=O)(=O)c1cc(C(=O)Nc3cc(F)c(F)c(F)c3)ccc1Cl)C2 [Example 198]	< 100	
O=C(Nc1cc(F)c(F)c(F)c1)c1ccc(Cl)c(S(=O)(=O)[C@H]2C3CC[C@H]2C[C@](O)(/C=[N+](\[O-])Cc2ccccc2)C3)c1 [Example 199]	100 to 400	
CN1OCC(C#N)C1[C@]1(O)CC2CC[C@@H](C1)[C@H]2S(=O)(=O)c1cc(C(=O)Nc2cc(F)c(F)c(F)c2)ccc1Cl (some centres unmarked) [Example 200]	100 to 400	
CO/N=C/[C@]1(O)CC2CC[C@@H](C1)[C@H]2S(=O)(=O)c1cc(C(=O)Nc2cc(F)c(F)c(F)c2)ccc1Cl [Example 201]	< 100	
CCO/N=C/[C@]1(O)CC2CC[C@@H](C1)[C@H]2S(=O)(=O)c1cc(C(=O)Nc2cc(F)c(F)c(F)c2)ccc1Cl [Example 202]	< 100	
CC(C)(C)O/N=C/[C@]1(O)CC2CC[C@@H](C1)[C@H]2S(=O)(=O)c1cc(C(=O)Nc2cc(F)c(F)c(F)c2)ccc1Cl [Example 203]	< 100	
C=CCO/N=C/[C@]1(O)CC2CC[C@@H](C1)[C@H]2S(=O)(=O)c1cc(C(=O)Nc2cc(F)c(F)c(F)c2)ccc1Cl [Example 204]	< 100	
O=C(Nc1cc(F)c(F)c(F)c1)c1ccc(Cl)c(S(=O)(=O)[C@H]2C3CC[C@H]2C[C@](O)(/C=N/OCc2ccccc2)C3)c1 [Example 205]	< 100	
O=C(Nc1cc(F)c(F)c(F)c1)c1ccc(Cl)c(S(=O)(=O)C2CC3CCC(C2)C3=O)c1 (centres unmarked) [Example 206]		> 400
C=C1C2CCC1CC(S(=O)(=O)c1cc(C(=O)Nc3cc(F)c(F)c(F)c3)ccc1Cl)C2 (centres unmarked) [Example 207]	> 400	
O=C(Nc1cc(F)c(F)c(F)c1)c1ccc(Cl)c(S(=O)(=O)[C@H]2CC3CCC(C2)[C@]3(O)CO)c1 [Example 208]		> 400
N#CC1CON(Cc2ccccc2)C1[C@]1(O)CC2CC[C@@H](C1)[C@H]2S(=O)(=O)c1cc(C(=O)Nc2cc(F)c(F)c(F)c2)ccc1Cl (some centres unmarked) [Example 209]	> 400	
N#CC1CON(Cc2ccccc2)C1C1=C[C@@H]2CCC(C1)[C@@H]2S(=O)(=O)c1cc(C(=O)Nc2cc(F)c(F)c(F)c2)ccc1Cl (some centres unmarked) [Example 210]	> 400	
COC(=O)C1CON(Cc2ccccc2)[C@@]12CC1CC[C@@H](C2)[C@H]1S(=O)(=O)c1cc(C(=O)Nc2cc(F)c(F)c(F)c2)ccc1Cl (some centres unmarked) [Example 211]	> 400	
COC(=O)C1OCN(Cc2ccccc2)[C@]12CC1CC[C@@H](C2)[C@H]1S(=O)(=O)c1cc(C(=O)Nc2cc(F)c(F)c(F)c2)ccc1Cl (some centres unmarked) [Example 212]	> 400	
COC(=O)C1CON(Cc2ccccc2)C1[C@]1(O)CC2CC[C@@H](C1)[C@H]2S(=O)(=O)c1cc(C(=O)Nc2cc(F)c(F)c(F)c2)ccc1Cl (some centres unmarked) [Example 213]	> 400	
COC(=O)C1CON(Cc2ccccc2)C1C1=C[C@@H]2CCC(C1)[C@@H]2S(=O)(=O)c1cc(C(=O)Nc2cc(F)c(F)c(F)c2)ccc1Cl (some centres unmarked) [Example 214]	100 to 400	
COC(=O)C1=CON(Cc2ccccc2)C1[C@]1(O)CC2CC[C@@H](C1)[C@H]2S(=O)(=O)c1cc(C(=O)Nc2cc(F)c(F)c(F)c2)ccc1Cl (some centres unmarked) [Example 215]	> 400	

Compound	EC50 [1] [nM]	EC50 [nM]
COC(=O)C1=CON(Cc2ccccc2)C1[C@]1(O)CC2CC[C@@H](C1)[C@H]2S(=O)(=O)c1cc(C(=O)Nc2cc(F)c(F)c(F)c2)ccc1Cl (some centres unmarked) [Example 216]		> 400
COC(=O)C1CON(C)[C@@]12CC1CC[C@@H](C2)[C@H]1S(=O)(=O)c1cc(C(=O)Nc2cc(F)c(F)c(F)c2)ccc1Cl (some centres unmarked) [Example 217]	> 400	
COC(=O)C1CON(C)[C@]12CC1CC[C@@H](C2)[C@H]1S(=O)(=O)c1cc(C(=O)Nc2cc(F)c(F)c(F)c2)ccc1Cl (some centres unmarked) [Example 218]	> 400	
CCOC(=O)/C=C1/CC2CC[C@@H](C1)[C@H]2S(=O)(=O)c1cc(C(=O)Nc2cc(F)c(F)c(F)c2)ccc1Cl [Example 221]	100 to 400	
CCOC(=O)/C=C/[C@]1(O)CC2CC[C@@H](C1)[C@H]2S(=O)(=O)c1cc(C(=O)Nc2cc(F)c(F)c(F)c2)ccc1Cl [Example 222]	> 400	
O=C(Nc1cc(F)c(F)c(F)c1)c1ccc(Cl)c(S(=O)(=O)[C@H]2CC3CCC(C2)[C@@]3(O)CO)c1 [Example 223]	< 100	
O=C(Nc1cc(F)c(F)c(F)c1)c1ccc(Cl)c(S(=O)(=O)[C@H]2C3CC[C@H]2C[C@](O)(/C=N/OCc2ccc(-c4ccccc4)cc2)C3)c1 [Example 224]	100 to 400	
O=C(O)/C=C/[C@]1(O)CC2CC[C@@H](C1)[C@H]2S(=O)(=O)c1cc(C(=O)Nc2cc(F)c(F)c(F)c2)ccc1Cl [Example 225]	> 400	
O=C(Nc1cc(F)c(F)c(F)c1)c1ccc(Cl)c(S(=O)(=O)[C@H]2C3CC[C@H]2C[C@H](/C=N/O)C3)c1 [Example 229]	< 100	
Cc1ccc(CO/N=C/[C@]2(O)CC3CC[C@@H](C2)[C@H]3S(=O)(=O)c2cc(C(=O)Nc3cc(F)c(F)c(F)c3)ccc2Cl)cc1 [Example 230]	100 to 400	
O=C(Nc1cc(F)c(F)c(F)c1)c1ccc(Cl)c(S(=O)(=O)[C@H]2C3CC[C@H]2C[C@](O)(/C=N/OCc2ccc(C(F)(F)F)cc2)C3)c1 [Example 231]	100 to 400	
O=C(Nc1cc(F)c(F)c(F)c1)c1ccc(Cl)c(S(=O)(=O)[C@H]2C3CC[C@H]2C[C@](O)(/C=N/OCc2ccc(F)cc2)C3)c1 [Example 232]	< 100	
COc1ccc(CO/N=C/[C@]2(O)CC3CC[C@@H](C2)[C@H]3S(=O)(=O)c2cc(C(=O)Nc3cc(F)c(F)c(F)c3)ccc2Cl)cc1 [Example 233]	< 100	
O=C(Nc1cc(F)c(F)c(F)c1)c1ccc(Cl)c(S(=O)(=O)[C@H]2C3CC[C@H]2C[C@](O)(/C=N/OCc2ccc([N+](=O)[O-])cc2)C3)c1 [Example 234]	100 to 400	
O=C(Nc1cc(F)c(F)c(F)c1)c1ccc(Cl)c(S(=O)(=O)[C@H]2C3CC[C@H]2C[C@](O)(/C=N/OCc2c(F)c(F)c(F)c(F)c2F)C3)c1 [Example 235]	100 to 400	
O=C(Nc1cc(F)c(F)c(F)c1)c1ccc(Cl)c(S(=O)(=O)[C@H]2C3CC[C@H]2C[C@](O)(/C=N/OCc2cccc(F)c2)C3)c1 [Example 236]	100 to 400	
COc1cccc(CO/N=C/[C@]2(O)CC3CC[C@@H](C2)[C@H]3S(=O)(=O)c2cc(C(=O)Nc3cc(F)c(F)c(F)c3)ccc2Cl)c1 [Example 237]	100 to 400	
COc1ccccc1CO/N=C/[C@]1(O)CC2CC[C@@H](C1)[C@H]2S(=O)(=O)c1cc(C(=O)Nc2cc(F)c(F)c(F)c2)ccc1Cl [Example 238]	100 to 400	
O=C(Nc1cc(F)c(F)c(F)c1)c1ccc(Cl)c(S(=O)(=O)[C@H]2C3CC[C@H]2C[C@H](c2cc(-c4ccccc4)on2)C3)c1 [Example 239]	< 100	
O=C(Nc1cc(F)c(F)c(F)c1)c1ccc(Cl)c(S(=O)(=O)C[C@H]2CC3CC2[C@H](O)[C@@H]3O)c1 (some centres unmarked) [Example 241]	< 100	
